The values that follow come from patent US11185593B2, “Alkylating agent for alkylating target with driver oncogene mutation” (Chiba Prefecture, priority 2013, dated 2021).

What all share (format): cell-based
The test system of one test is TGW cells. The test can be described thus: Cytotoxicity test, Cell Counting Kit-8, 72 hours. How it is done:
(§1) The experiment was carried out in the same manner as that in the case of using KR12. The cells used in the experiment were IMR-32 cells and TGW cells. These cells were cultured in a DMEM, 10% FBS and 1% Pen/St medium, and in an RPMI1640, 10% FBS and 1% Pen/St medium, respectively. The cells of each type were seeded in each well of a 96-well plate at a cell density of 1000 cells/50 μl/well, and were then cultured under conditions of 37° C., 5% CO2, and saturated humidity for 24 hours. Thereafter, a reagent was diluted with a medium (final concentration: 1, 3, 10, 30, and 100 nM), and the diluted reagent was then added to the cultured cells in an amount of 50 μl/well, and the obtained mixture was then blended. The thus obtained mixture was cultured again under conditions of 37° C., 5% CO2, and saturated humidity for 72 hours. Thereafter, Cell Counting Kit-8 (DOJINDO) was added to the obtained culture in an amount of 10 μl/well, and the thus obtained mixture was blended and was then cultured under conditions of 37° C., 5% CO2, and saturated humidity for 2 hours. The absorbance was measured using Microplate Reader MTP-310 Lab (COLONA ELECTORIC), and the IC50 value was then calculated.
A general note: Formazan colour is commonly taken as a measure of viable cells.

The next test has as its system NB69 cells. The test can be described thus: Cell growth measurement test, 72 hours. Conditions: Homo sapiens, NB69, without MYCN amplification, 0.3 to 300 nM.
The test system of a further test is MCF7 cells. The test can be described thus: Cytotoxicity test, Cell Counting Kit-8, 72 hours. Conditions: Homo sapiens, MCF7, breast cancer cells, 0.3 to 300 nM. As for the experimental part: as §1, with “MCF7” for “IMR-32”, “MDA-MB-231” for “TGW”
The test system of the next test is IMR-32 cells. The test can be described thus: Cytotoxicity test, Cell Counting Kit-8, 72 hours. Conditions: Homo sapiens. As for the experimental part:
The experiment was carried out in the same manner as that in the case of using KR12. The cells used in the experiment were Kelly cells, SK-N-SH cells, IMR-32 cells, SK-N-AS cells, and MDA-MB-231 cells. These cells were cultured in a DMEM, 10% FBS and 1% Pen/St medium, and in an RPMI1640, 10% FBS and 1% Pen/St medium, respectively. The cells of each type were seeded in each well of a 96-well plate at a cell density of 1000 cells/50 μl/well, and were then cultured under conditions of 37° C., 5% CO2, and saturated humidity for 24 hours. Thereafter, a reagent was diluted with a medium (final concentration: 1, 3, 10, 30, and 100 nM), and the diluted reagent was then added to the cultured cells in an amount of 50 μl/well, and the obtained mixture was then blended. The thus obtained mixture was cultured again under conditions of 37° C., 5% CO2, and saturated humidity for 72 hours. Thereafter, Cell Counting Kit-8 (DOJINDO) was added to the obtained culture in an amount of 10 μl/well, and the thus obtained mixture was blended and was then cultured under conditions of 37° C., 5% CO2, and saturated humidity for 2 hours. The absorbance was measured using Microplate Reader MTP-310 Lab (COLONA ELECTORIC), and the IC50 value was then calculated.
as §1

Another test deals with HDF cells. The test can be described thus: Cell growth measurement test, 72 hours. Conditions: fibroblasts, 0.3 to 300 nM.
A further test concerns HT29 cells. The test can be described thus: Cell growth measurement test, 72 hours. The following applies: Homo sapiens, HT-29, HT29, colon cancer cells, 0.3 to 300 nM.
Test [1] has as its system IMR-32 cells (MYCN, 25 copies). The test can be described thus: Cell growth curve, Incucyte culture time-lapse microscope. The following applies: IMR-32, 1 to 100 nM, FIG. 32. How it is done:
(§2) The cells were seeded in each well of a 96-well plate at a cell density of 1000 cells/50 μl/well, and were then cultured under conditions of 37° C., 5% CO2, and saturated humidity for 24 hours. On the following day, the culture media was replaced with a culture media, to which a DMSO control, or 1 nM, 3 nM, 10 nM, 30 nM or 100 nM MYCNA1 had been added, and the resulting cells were then observed under an Incucyte culture time-lapse microscope (Essen Instruments, Ann Arbor, Mich.) every 6 hours. A growth curve was produced from an imaging plate using Incucyte system (Essen Instruments, Ann Arbor, Mich.). The cells used in the experiment were neuroblastoma cell lines having MYCN amplification, IMR-32 cells (MYCN, 25 copies) and TGW cells (MYCN, 60 copies). The cells of each type were cultured in a DMEM, 10% FBS and 1% Pen/St medium, and in an RPMI1640, 10% FBS and 1% Pen/St medium, respectively.

In test [2] the test system is TGW cells (MYCN, 60 copies). The test is described as above. The following applies: 1 to 100 nM, FIG. 32. How it is done: as §2

A word on the IC50: it is the midpoint of a concentration-inhibition curve. Low readings indicate higher potency, high ones lower potency. With `CC(=O)Nc1cn(C)c(C(=O)Nc2cn(C)c(C(=O)Nc3cn(C)c(C(=O)NCCC(=O)Nc4cn(C)c(C(=O)Nc5cc(C(=O)Nc6cc(C(=O)NCCCC(=O)Nc7cn(C)c(C(=O)Nc8cn(C)c(C(=O)Nc9cc(C(=O)NCCC(=O)Nc%10cc(C(=O)Nc%11ccc%12[nH]c(C(=O)N%13CC(CCl)c%14c%13cc(O)c%13ccccc%14%13)cc%12c%11)n(C)c%10)n(C)c9)n8)n7)n(C)c6)n(C)c5)n4)n3)n2)n1` (stereo not shown) [MYCNA3], the half-inhibitory concentration (IC50) was determined as 3.7 nM in the test with TGW cells (TGW, with MYCN amplification, 0.3 to 300 nM); 77 nM with NB69 cells; 152 nM with MCF7 cells; 1.1 nM with IMR-32 cells (IMR-32, IMR32, with MYCN amplification, 0.3 to 300 nM); 56.6 nM in the test with HDF cells; 240 nM with HT29 cells.

Consider `CC(=O)Nc1cn(C)c(C(=O)Nc2cc(C(=O)Nc3cc(C(=O)NCCC(=O)Nc4cn(C)c(C(=O)Nc5cc(C(=O)NCCCC(=O)Nc6cc(C(=O)Nc7cc(C(=O)NCCC(=O)Nc8cc(C(=O)Nc9ccc%10[nH]c(C(=O)N%11CC(CCl)c%12c%11cc(O)c%11ccccc%12%11)cc%10c9)n(C)c8)n(C)c7)n(C)c6)n(C)c5)n4)n(C)c3)n(C)c2)n1` (stereo not shown) [MYCNA1], for which the “cell growth (growth curve)” value in test [1] and in test [2] was “suppressed by MYCNA1 in a concentration-dependent manner” each time. The concentration for half-maximal inhibition (IC50) was 12.9 nM with TGW cells (TGW cells, 1 to 100 nM, FIG. 33) and 9.7 nM with IMR-32 cells (IMR-32 cells, 1 to 100 nM, FIG. 33).
